From EP4129319A1, “PORE-FORMING ANTIMICROBIAL PEPTIDES” (priority 2021, dated 2023)
Where two headings read alike, the source gives them in different places. Ends that are not written are not given here.

Tests used:
[1] = test system: Gram-positive Staphylococcus carnosus CCM 4838T; type: cell-based; details: for Antibacterial activity (MIC in µM) S. carnosus: CCM 4838; for MIC against S. carnosus: 24 h at 37 °C, dilution series 50 to 0.1 µM; for times higher MIC than that of ampicillin, S. carnosus: ratio to ampicillin
Description: (§1) Chemicals. […] (Prague, Czech Republic), and Caslo ApS (Kongens Lyngby, Denmark). […] The bacterial stock was stored at -80°C.
(§2) Broth microdilution assay. Antimicrobial activity of the peptides was investigated against Gram-negative Escherichia coli TOP10 strain and Gram-positive Staphylococcus carnosus CCM 4838T using broth microdilution assay, based on which the inventors determined the bacterial minimum inhibition concentration (MIC). After cross streaking with bacteria, the petri dishes (with MHA) were incubated for 24 h at 37 °C. Overnight grown cultures were then sub-cultured for 4-6 h at 37 °C in test tubes containing MHB. The sub-cultured solutions were subsequently diluted to a standard concentration of 10^6 colony forming units (CFU) per mL. Cell counts were determined by measuring the optical density at 600 nm. In a flat-bottomed 96 well plate, the inventors prepared a dilution series for the peptides and for the reference antibiotic ampicillin from 50 to 0.1 µM concentration, which was then inoculated with bacteria and incubated for 24 h at 37 °C. Growth control wells were free from peptides or ampicillin to show the viability of the bacteria, and sterility control wells were free from bacterial inoculation to verify the sterility of the medium. The bacterial growth was visually evaluated based on the turbidity. MIC was determined as the lowest concentrated well where no visible bacterial growth was observed. To test the bacteriostatic or bacteriocidal activity of the peptides, 50 µl solution from the highest concentrated well (i.e., 50 µM) was transferred to a test tube containing 4 mL sterile MHB and incubated for 24 h at 37 °C under constant stirring. Streaking of the same solution was done on MHA containing petri dishes and incubated for 24 h at 37 °C to confirm the morphology of the colonies grown. Experiments were performed in triplicates.

[2] = test system: Gram-negative Escherichia coli TOP10 strain; type: cell-based; details: for Antibacterial activity (MIC in µM) E. coli TOP10: broth microdilution assay
Description: as §1, §2

[3] = test system: human dermal fibroblast (HDF) cell lines; assay: Neutral red uptake assay (cytotoxicity); type: cell-based
Description: Neutral red uptake assay. To evaluate the cytotoxicity of the peptides against human dermal fibroblast (HDF) cell lines, the inventors purchased the neutral red uptake assay from Essence Line (Praha, Czech Republic). The initial cell culture was sub-cultured in supplemented Dulbecco's Modified Eagle Medium (DMEM) and diluted to a cell density of 1 × 10^5 cells/mL. The diluted culture was then seeded into the wells (1 × 10^4

Calcein leakage assay = type: biochemical; details: for Extent of leakage (in percentage) at increasing peptide-to-lipid ratio (mol/mol) 1:50 / Extent of leakage (in percentage) at increasing peptide-to-lipid ratio (mol/mol) 1:100 / Extent of leakage (in percentage) at increasing peptide-to-lipid ratio (mol/mol) 1:10 / Extent of leakage (in percentage) at increasing peptide-to-lipid ratio (mol/mol) 1:20: calcein leakage, POPC:POPG (1:1 mol/mol) LUVs; for Extent of leakage (in percentage) at increasing peptide-to-lipid ratio (mol/mol) 1:50: peptide-to-lipid ratio 1:50 (mol/mol); for Extent of leakage (in percentage) at increasing peptide-to-lipid ratio (mol/mol) 1:100: peptide-to-lipid ratio 1:100 (mol/mol); for Extent of leakage (in percentage) at increasing peptide-to-lipid ratio (mol/mol) 1:10: peptide-to-lipid ratio 1:10 (mol/mol); for Extent of leakage (in percentage) at increasing peptide-to-lipid ratio (mol/mol) 1:20: peptide-to-lipid ratio 1:20 (mol/mol); for calcein / vesicle leakage, pore-forming ability (in words): POPC:POPG (1:1) LUVs
Description: as §1
Calcein leakage assay. Pore-forming activity of the peptides was tested by their ability to leak the self-quenching fluorescent dye calcein entrapped within POPC:POPG (1:1 mol/mol) large unilamellar vesicles (LUVs). After mixing DiD to the lipid mixture (in the ratio 1:500 mol/mol), a thin lipid film was created by evaporating of the chloroform, traces of which were removed by desiccating overnight. The lipid film was then dissolved in calcein buffer, followed by vigorous vortexing. The lipid suspension was subsequently subjected to 10 freeze-thaw cycles. To obtain uniform LUVs, the sample was passed 50 times back and forth through an extruder stacked with 100 nm pore size polycarbonate membrane filter. Afterwards, the untrapped calcein was removed on a HiTrap Desalting Column (with Sephadex G-25 Superfine resin) by washing with PBS buffer. The concentration of the lipid suspension was then adjusted to 0.02 mM. The concentration of the peptide solution was 0.1 mM. The inventors monitored the peptide-induced release of calcein from LUVs by the increase in fluorescence intensity after adding increasing amounts of peptides to the LUVs under constant stirring at 25 °C. The investigated range of peptide/lipid molecular ratio was from 1:100 to 1:10. The excitation and emission wavelengths were set to 495 nm and 520 nm, respectively. Maximum fluorescence intensity was obtained by disrupting all the vesicles in the end by adding 10% Triton X-100. Experiments were performed in triplicates with independently prepared lipid vesicles.

[4] = test system: human red blood cells (HRBCs); type: cell-based
Description: as §1
Hemolysis assay. Hemolytic toxicity of the peptides was evaluated from their ability to lyse the fresh human red blood cells (HRBCs) collected from the University Hospital (Brno, Czech Republic). To obtain the erythrocyte pellets, the blood samples were centrifuged twice at 700×g and subsequently, once at 1000×g, each for 8 min. at 4 °C, which was followed by thorough washing with PBS. Resuspension of the pellets was done in PBS to obtain 0.5% (vol/vol) RBC suspension. In a well plate with 96 V-shaped bottom wells, the peptides were added in a dilution series from 0.1 to 50 µM concentration. Subsequently, HRBC suspension was added in each well. Negative control wells contained only PBS and HRBC suspension without any peptide (i.e., 0% lysis), and positive control wells included 5 µM melittin in the HRBC suspension. After incubation for 1 h at 37 °C, the well plates were centrifuged at 1000×g for 10 min. at 4 °C. Subsequently, the supernatant was collected in a flat-bottomed well plate and the optical density of the released hemoglobin was measured for each well at 415 nm wavelength. The calculated absorbances from the wells were then normalized against the averaged absorbances of the positive and the negative control wells. EC50 value was calculated from the normalized absorbances indicating 50% hemolysis of HRBCs. Experiments were performed in triplicates with three independent blood samples.

[5] = test system: Klebsiella pneumoniae ATCC 700603; type: cell-based; details: ESKAPE panel; strain not given, ampicillin > 16 fits the 16-to-0.03 µM series of Evotec
Description: as §2
(§3) The antimicrobial susceptibility test of the most promising peptide against the recalcitrant ESKAPE pathogens was purchased from Evotec (Macclesfield, UK) for the following strains: Enterococcus faecium ATCC 700221, Staphylococcus aureus NRS 1, Klebsiella pneumoniae ATCC 700603, Acinetobacter baumanni GSAB 164, Pseudomonas aeruginosa ATCC 13437, Escherichia coli ATCC 25922 and Enterobacter aerogenes B207A, and was purchased from Essence Line (Praha, Czech Republic) against the following strains: Enterococcus faecium ATCC 29212, Enterococcus hirae ATCC 10541, Staphylococcus aureus ATCC 6538, ATCC 29213, Methicillin-resistant Staphylococcus aureus (MRSA) CNCTC 7452, Klebsiella pneumoniae ATCC 10031, Acinetobacter baumanni ATCC 19606, Pseudomonas aeruginosa ATCC 15442 and Escherichia coli ATCC 10536 and ATCC 35218. […]

[6] = test system: Escherichia coli ATCC 25922; type: cell-based; details: strain not given, assigned to the Evotec series
Description: as §2, §3

[7] = test system: Enterococcus faecium ATCC 700221; type: cell-based; details: ESKAPE panel; strain not given, ampicillin > 16 fits the 16-to-0.03 µM series of Evotec
Description: as §2, §3

[8] = test system: Acinetobacter baumanni GSAB 164; type: cell-based; details: ESKAPE panel; strain not given, ampicillin > 16 fits the 16-to-0.03 µM series of Evotec
Description: as §2, §3

[9] = PBS buffer
Description: After storing at -20 °C, the peptides were dissolved in phosphate-buffered saline (PBS). […] The pH of all the buffers was adjusted to physiological value 7.4.

[10] = hemolysis assay, HRBCs, read-out: Toxicity (EC50 in µM) HRBCs

Substance: RRRRLRRILRRLFQFINQLDNQLQDIRQNR-NH2 [RDFA2i+9-NH2]
- Antibacterial activity (MIC in µM) S. carnosus [1]: 0.8 µM
- Antibacterial activity (MIC in µM) E. coli TOP10 [2]: 1.6 µM
- EC50 [3]: 16 µM
- Extent of leakage (in percentage) at increasing peptide-to-lipid ratio (mol/mol) 1:50 (Calcein leakage assay): 101.1 ± 0.8 percentage
- Extent of leakage (in percentage) at increasing peptide-to-lipid ratio (mol/mol) 1:100 (Calcein leakage assay): 65.8 ± 4.1 percentage
- EC50 [4]: 0.9 µM
- EC50 ([4]; 1 h): 0.9 µM

Substance: KKKKLKKILKKLFQFIDQLDNDLQDIKKKK (not fully specified (C-terminus)) [KDFC16+9-NH2, group C peptide, net charge +9 e; 89]
- MIC against S. carnosus [1]: 0.4 µM
- times higher MIC than that of ampicillin, S. carnosus [1]: 4
- MIC against E. coli ([2]; 24 h at 37 °C, dilution series 50 to 0.1 µM): 0.8 µM
- Antibacterial activity (MIC in µM) E. coli TOP10 [2]: 0.8 µM
- times lower MIC than the MIC of ampicillin, E. coli ([2]; ratio to ampicillin): 15
- EC50 ([3]; HDFs, column stands under the head 'Hemolysis assay', read-out: Toxicity (EC50 in µM) HDFs): 10 µM
- Extent of leakage (in percentage) at increasing peptide-to-lipid ratio (mol/mol) 1:10 (Calcein leakage assay): 99.28 ± 1.2 percentage
- Extent of leakage (in percentage) at increasing peptide-to-lipid ratio (mol/mol) 1:20 (Calcein leakage assay): 98.3 ± 5.2 percentage
- Extent of leakage (in percentage) at increasing peptide-to-lipid ratio (mol/mol) 1:50 (Calcein leakage assay): 97.4 ± 9.3 percentage
- Extent of leakage (in percentage) at increasing peptide-to-lipid ratio (mol/mol) 1:100 (Calcein leakage assay): 78.2 ± 4.5 percentage
- EC50 [4, 10]: > 50 µM

Substance: KKKKVKKVVKKVFSFVDSVDSDVSDVKKKK-NH2 [KDFC16+9SV-NH2]
- MIC against S. carnosus [1]: 0.4 µM
- times higher MIC than that of ampicillin, S. carnosus [1]: 4
- Antibacterial activity (MIC in µM) E. coli TOP10 [2]: 25 µM
- EC50 [3]: > 150 µM
- calcein / vesicle leakage, pore-forming ability (in words) (Calcein leakage assay): did not cause calcein leakage
- EC50 [4]: > 50 µM

Substance: KKKKLKKILKKLFQFINQLDNQLQDIKKKK-NH2 [KDFA2i+11-NH2]
- Antibacterial activity (MIC in µM) S. carnosus [1]: 0.2 µM
- Antibacterial activity (MIC in µM) E. coli TOP10 [2]: 0.2 µM
- MIC against K. pneumoniae [5]: 3.8 µM
- MIC against E. coli (ESKAPE panel) [6]: 1.4 µM
- MIC against E. faecium [7]: 1.9 µM
- MIC against A. baumannii [8]: 1.4 µM
- EC50 [4, 10]: > 50 µM

Substance: KKKKLKKILKKLFQFINQLDNQLQDIAQNA-NH2 [KDFA2i+7-npNH2]
- Extent of leakage (in percentage) at increasing peptide-to-lipid ratio (mol/mol) 1:10 (Calcein leakage assay): Aggregated peptides and no leakage
- Extent of leakage (in percentage) at increasing peptide-to-lipid ratio (mol/mol) 1:20 (Calcein leakage assay): Aggregated peptides and no leakage
- Extent of leakage (in percentage) at increasing peptide-to-lipid ratio (mol/mol) 1:50 (Calcein leakage assay): Aggregated peptides and no leakage
- Extent of leakage (in percentage) at increasing peptide-to-lipid ratio (mol/mol) 1:100 (Calcein leakage assay): Aggregated peptides and no leakage
- aggregation / solubilization problem (in words) [9]: peptide aggregation

Substance: KKKKLKKILKKLFQFINQLDNQLQDIKQNK-NH2 [KDFA2i+9-NH2]
- Antibacterial activity (MIC in µM) S. carnosus [1]: 0.8 µM
- Antibacterial activity (MIC in µM) E. coli TOP10 [2]: 0.8 µM
- EC50 [3]: 97 µM
- EC50 [4, 10]: > 50 µM

Substance: KQKKLKKFFNQLIQLINQLFNQLDDFNQNK [KDFB12]
- Antibacterial activity (MIC in µM) S. carnosus [1]: 6.3 µM
- Antibacterial activity (MIC in µM) E. coli TOP10 [2]: 6.3 µM
- EC50 [3]: 20 µM
- Extent of leakage (in percentage) at increasing peptide-to-lipid ratio (mol/mol) 1:20 (Calcein leakage assay): 101.5 ± 0.6 percentage
- Extent of leakage (in percentage) at increasing peptide-to-lipid ratio (mol/mol) 1:50 (Calcein leakage assay): 98.2 ± 0.7 percentage
- Extent of leakage (in percentage) at increasing peptide-to-lipid ratio (mol/mol) 1:100 (Calcein leakage assay): 79.4 ± 3.7 percentage
- EC50 [4]: > 50 µM

Substance: KKKKLDDILDDLFQFIKQLKNKLQKIKKKK-NH2 [DKFC16+9-NH2]
- antimicrobial activity against S. carnosus (in words) [1]: found active against S. carnosus
- Antibacterial activity (MIC in µM) S. carnosus [1]: 1.6 µM
- antimicrobial activity against E. coli (in words) [2]: did not show activity against E. coli
- Antibacterial activity (MIC in µM) E. coli TOP10 [2]: > 50 µM
- calcein / vesicle leakage, pore-forming ability (in words) (Calcein leakage assay): resulted in vesicle leakage
- Extent of leakage (in percentage) at increasing peptide-to-lipid ratio (mol/mol) 1:20 (Calcein leakage assay): 103.3 ± 0.9 percentage
- Extent of leakage (in percentage) at increasing peptide-to-lipid ratio (mol/mol) 1:50 (Calcein leakage assay): 89.5 ± 3.3 percentage
- Extent of leakage (in percentage) at increasing peptide-to-lipid ratio (mol/mol) 1:100 (Calcein leakage assay): 50.1 ± 4.1 percentage
- EC50 [4]: > 50 µM
